Test results reported in PMC12846068, “Insights into Transport Function of the Murine Organic Anion-Transporting Polypeptide OATP1B2 by Comparison with Its Rat and Human Orthologues” (Toxics, 2025).
pIC50: −log10 of the molar value. “Also recorded” adds a separate entry of the source. Read-outs that look alike come from different tables or passages of the source.

Key:
Assay type in all cases: cell-based
rOATP1B2 = target: T1, rOATP1B2 (Rattus norvegicus, UniProt Q9QZX8); assay: cis-inhibition of rOATP1B2-mediated E1S or TCA uptake in HEK293 cells
T1 construct: The full-length mOATP1B2 and rOATP1B2 consist of 689 and 678 amino acids
T1 sequence (Q9QZX8 1-687): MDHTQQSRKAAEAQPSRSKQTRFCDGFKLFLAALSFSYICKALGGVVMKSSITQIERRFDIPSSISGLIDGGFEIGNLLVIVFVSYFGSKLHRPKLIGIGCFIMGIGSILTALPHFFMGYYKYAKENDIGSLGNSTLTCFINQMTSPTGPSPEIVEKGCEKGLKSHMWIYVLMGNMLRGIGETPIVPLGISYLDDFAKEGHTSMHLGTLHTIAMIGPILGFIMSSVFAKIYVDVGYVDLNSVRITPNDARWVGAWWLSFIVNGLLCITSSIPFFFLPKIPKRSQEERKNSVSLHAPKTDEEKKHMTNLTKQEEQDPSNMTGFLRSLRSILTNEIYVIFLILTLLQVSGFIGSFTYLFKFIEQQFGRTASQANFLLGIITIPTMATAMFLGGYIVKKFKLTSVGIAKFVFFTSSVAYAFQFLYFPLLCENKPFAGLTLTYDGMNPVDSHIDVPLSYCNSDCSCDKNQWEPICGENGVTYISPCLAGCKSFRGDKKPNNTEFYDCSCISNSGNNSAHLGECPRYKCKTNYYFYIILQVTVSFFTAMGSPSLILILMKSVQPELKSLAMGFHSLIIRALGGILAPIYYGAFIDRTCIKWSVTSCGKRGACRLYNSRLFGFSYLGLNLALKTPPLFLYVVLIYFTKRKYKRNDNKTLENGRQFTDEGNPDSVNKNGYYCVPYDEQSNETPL

hOATP1B1 = target: T2, hOATP1B1 (Homo sapiens, UniProt Q9Y6L6); assay: cis-inhibition of hOATP1B1-mediated E1S uptake in HEK293 cells; set-up: expressed in transfected cells; host or cells: HEK-293, stably transfected; conditions: 10 µM drug; for Inhibitory effect on hOATP1B1-mediated E1S uptake: 0.01 µM [3H]-E1S, 1 min; for inhibition at 1 min, 10 µM: human, HEK293 cells expressing hOATP1B1, probe 0.01 µM [3H]-E1S, read-out: Inhibitory effect on hOATP1B1-mediated E1S uptake
T2 sequence (Q9Y6L6 1-691): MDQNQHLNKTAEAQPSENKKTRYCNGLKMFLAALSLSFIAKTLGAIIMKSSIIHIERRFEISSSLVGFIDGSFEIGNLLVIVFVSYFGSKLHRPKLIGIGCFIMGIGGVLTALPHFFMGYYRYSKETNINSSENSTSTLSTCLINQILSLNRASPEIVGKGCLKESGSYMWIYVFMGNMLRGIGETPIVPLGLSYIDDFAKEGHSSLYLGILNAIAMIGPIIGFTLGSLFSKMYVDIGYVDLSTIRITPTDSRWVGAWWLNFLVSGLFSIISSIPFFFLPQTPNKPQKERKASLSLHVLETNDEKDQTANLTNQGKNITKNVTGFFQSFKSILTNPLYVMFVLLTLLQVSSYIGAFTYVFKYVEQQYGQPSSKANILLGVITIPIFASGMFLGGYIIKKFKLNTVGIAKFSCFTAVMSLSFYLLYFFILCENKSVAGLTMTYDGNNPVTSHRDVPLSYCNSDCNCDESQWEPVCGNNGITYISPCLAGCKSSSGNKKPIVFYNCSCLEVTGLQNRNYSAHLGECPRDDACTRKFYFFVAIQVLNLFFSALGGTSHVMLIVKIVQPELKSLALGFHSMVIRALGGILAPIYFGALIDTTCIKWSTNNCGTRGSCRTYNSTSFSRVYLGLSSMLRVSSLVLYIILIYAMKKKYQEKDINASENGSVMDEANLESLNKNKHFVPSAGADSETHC
Procedure: (§1) Inhibitory effects were calculated as a percentage of the net-uptake rates.
(§2) The means ± average deviation (AD, for N = 2) were calculated from two experiments on two different days. The significance as a p-value was calculated using Student’s t-test in Microsoft Excel.

hOATP1B3 = target: T3, hOATP1B3 (Homo sapiens, UniProt Q9NPD5); assay: cis-inhibition of hOATP1B3-mediated TCA uptake in HEK293 cells; set-up: expressed in transfected cells; host or cells: HEK-293, stably transfected; conditions: 10 µM drug; for Inhibitory effect on hOATP1B3-mediated TCA uptake: 1 µM TCA, 10 min; for inhibition at 10 min, 10 µM: human, HEK293 cells expressing hOATP1B3, probe 1 µM TCA (containing 0.01 µM [3H]-TCA), Inhibitory effect on hOATP1B3-mediated TCA uptake
T3 sequence (Q9NPD5 1-702): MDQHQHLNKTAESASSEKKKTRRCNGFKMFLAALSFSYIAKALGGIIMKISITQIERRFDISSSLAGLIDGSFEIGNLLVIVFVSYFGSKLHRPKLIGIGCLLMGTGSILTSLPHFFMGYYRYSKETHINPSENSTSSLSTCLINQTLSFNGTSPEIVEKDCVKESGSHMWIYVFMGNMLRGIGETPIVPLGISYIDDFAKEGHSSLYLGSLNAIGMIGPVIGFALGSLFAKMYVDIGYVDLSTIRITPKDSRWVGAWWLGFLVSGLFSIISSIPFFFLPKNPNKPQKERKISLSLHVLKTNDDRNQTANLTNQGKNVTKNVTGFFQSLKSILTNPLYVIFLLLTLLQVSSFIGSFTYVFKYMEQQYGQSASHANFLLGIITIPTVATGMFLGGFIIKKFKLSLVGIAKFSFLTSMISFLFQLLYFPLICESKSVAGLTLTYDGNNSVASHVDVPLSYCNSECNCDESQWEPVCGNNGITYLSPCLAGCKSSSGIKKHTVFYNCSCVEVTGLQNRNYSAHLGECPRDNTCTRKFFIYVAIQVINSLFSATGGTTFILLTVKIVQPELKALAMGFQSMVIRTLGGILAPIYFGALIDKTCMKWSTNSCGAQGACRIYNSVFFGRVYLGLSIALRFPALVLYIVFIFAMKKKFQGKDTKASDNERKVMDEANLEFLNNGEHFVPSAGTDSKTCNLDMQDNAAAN
Procedure: as §1, §2

[1] = HEK293, 10 µM drug, 1 µM [3H]-E1S, 1 min, read-out: Inhibitory effect on rOATP1B2-mediated E1S uptake
[2] = HEK293, read-out: Inhibitory effect on rOATP1B2-mediated TCA uptake, 10 µM drug, 1 µM [3H]-TCA, 1 min
[3] = HEK293, read-out: Inhibitory effect on rOATP1B2-mediated substrate uptake (summary over E1S and TCA), 10 µM drug, substrates E1S and TCA not separated

Compound | inhibition at 10 µM (rOATP1B2; [1]) | inhibition at 10 µM (rOATP1B2; [2]) | inhibition at 10 µM (rOATP1B2; [3]) | Inhibitory effect on hOATP1B1-mediated E1S uptake (hOATP1B1) | Inhibitory effect on hOATP1B1-mediated E1S uptake (hOATP1B1; listed as amprenavir) | Inhibitory effect on hOATP1B3-mediated TCA uptake (hOATP1B3) | Inhibitory effect on hOATP1B3-mediated TCA uptake (hOATP1B3; listed as amprenavir) | inhibition at 1 min, 10 µM (hOATP1B1) | inhibition at 10 min, 10 µM (hOATP1B3) | Inhibitory effect on hOATP1B1-mediated E1S uptake (hOATP1B1; listed as ketoconazole) | Inhibitory effect on hOATP1B3-mediated TCA uptake (hOATP1B3; listed as ketoconazole) | pIC50 (rOATP1B2; 1 µM [3H]-E1S, 1 min, read-out: IC50, rOATP1B2-mediated E1S uptake) | fold difference of IC50 between mOATP1B2 and rOATP1B2 (stronger inhibition of rOATP1B2) (rOATP1B2; E1S uptake) | pIC50 (rOATP1B2; IC50, rOATP1B2-mediated TCA uptake, 1 µM [3H]-TCA, 1 min) | fold difference of IC50 between mOATP1B2 and rOATP1B2 (rOATP1B2; TCA uptake) | Inhibitory effect on rOATP1B2-mediated substrate uptake (summary over E1S and TCA) (rOATP1B2; 10 µM drug, substrates E1S and TCA not separated)
CCCCC1(CCCC)CN(c2ccccc2)c2cc(SC)c(OCC(=O)N[C@@H](C(=O)N[C@@H](CC)C(=O)O)c3ccc(O)cc3)cc2S(=O)(=O)N1 [Odevixibat, odevixibat] | 82% | 74% | 54 to 82% | completely inhibited; also recorded: complete inhibition |  | completely inhibited; also recorded: complete inhibition |  | 96% | 102% |  |  |  |  |  |  | 
CO[C@H]1/C=C/O[C@@]2(C)Oc3c(C)c(O)c4c(O)c(c(/C=N/N5CCN(C)CC5)c(O)c4c3C2=O)NC(=O)/C(C)=C\C=C\[C@H](C)[C@H](O)[C@@H](C)[C@@H](O)[C@@H](C)[C@H](OC(C)=O)[C@@H]1C [Rifampicin, rifampicin] | 93% | 83% |  |  |  |  |  | 59% | 104% |  |  | 5.96 | 8.7 fold | 5.62 | 3.2 fold | 
CC(C)c1nc(N(C)S(C)(=O)=O)nc(-c2ccc(F)cc2)c1/C=C/[C@@H](O)C[C@@H](O)CC(=O)O [Rosuvastatin, rosuvastatin] | 73% | 69% | ≥ 50% |  |  |  |  | 16% | 24% |  |  |  |  |  |  | 

Further lines, with some results ahead:

inhibition at 10 µM (rOATP1B2; [1]) | inhibition at 10 µM (rOATP1B2; [2]) | inhibition at 10 µM (rOATP1B2; [3]) | Inhibitory effect on hOATP1B1-mediated E1S uptake (hOATP1B1) | Inhibitory effect on hOATP1B1-mediated E1S uptake (hOATP1B1; listed as amprenavir) | Inhibitory effect on hOATP1B3-mediated TCA uptake (hOATP1B3) | Inhibitory effect on hOATP1B3-mediated TCA uptake (hOATP1B3; listed as amprenavir) | inhibition at 1 min, 10 µM (hOATP1B1) | inhibition at 10 min, 10 µM (hOATP1B3) | Inhibitory effect on hOATP1B1-mediated E1S uptake (hOATP1B1; listed as ketoconazole) | Inhibitory effect on hOATP1B3-mediated TCA uptake (hOATP1B3; listed as ketoconazole) | pIC50 (rOATP1B2; 1 µM [3H]-E1S, 1 min, read-out: IC50, rOATP1B2-mediated E1S uptake) | fold difference of IC50 between mOATP1B2 and rOATP1B2 (stronger inhibition of rOATP1B2) (rOATP1B2; E1S uptake) | pIC50 (rOATP1B2; IC50, rOATP1B2-mediated TCA uptake, 1 µM [3H]-TCA, 1 min) | fold difference of IC50 between mOATP1B2 and rOATP1B2 (rOATP1B2; TCA uptake) | Compound | Inhibitory effect on rOATP1B2-mediated substrate uptake (summary over E1S and TCA) (rOATP1B2; 10 µM drug, substrates E1S and TCA not separated)
21% | 27% | < 50% | −1% | less than 50% | 21% | less than 50% |  |  |  |  |  |  |  |  | CC(C)CN(C[C@@H](O)[C@H](Cc1ccccc1)NC(=O)O[C@H]1CCOC1)S(=O)(=O)c1ccc(N)cc1 [Amprenavir, amprenavir] | 
-10% | -10% |  | did not inhibit |  | did not inhibit |  | 10% | -44% |  |  |  |  |  |  | Clc1ccccc1C(c1ccccc1)(c1ccccc1)n1ccnc1 [Clotrimazole, clotrimazole] | no inhibitory properties; also recorded: did not inhibit
34% | 19% | < 50% | 25% |  | 23% |  |  |  | less than 50% | less than 50% |  |  |  |  | CC(=O)N1CCN(c2ccc(OCC3COC(Cn4ccnc4)(c4ccc(Cl)cc4Cl)O3)cc2)CC1 (centres unmarked) [Ketoconazole, ketoconazole] | 
